Data from the NIST ThermoML archive (doi:10.1021/je060288t).

Tests used:
[1] = xn = mol fraction of the nth substance listed; settings: 101 kPa, Liquid; for viscosity: Capillary tube (Ostwald / Ubbelohde) method; for mass density: Pycnometric method
[2] = 101 kPa, Liquid; for viscosity: Capillary tube (Ostwald / Ubbelohde) method; for mass density: Pycnometric method

C=C(C)C(=O)OCc1ccccc1 [benzyl methacrylate] + COCC(C)O
[1]
Settings	mass density, 298.15 K [kg/m3]	mass density, 308.15 K [kg/m3]	mass density, 318.15 K [kg/m3]	viscosity, 298.15 K [mPa·s]	viscosity, 308.15 K [mPa·s]	viscosity, 318.15 K [mPa·s]
x2 = 0	1034.7	1025.8	1017	2.302	1.885	1.58
x2 = 0.1	1026.8	1018.1	1009.5	2.194	1.806	1.52
x2 = 0.2	1018.6	1010.1	1001.4	2.09	1.716	1.441
x2 = 0.3	1009.8	1001.4	992.5	1.99	1.628	1.364
x2 = 0.4	1000.2	991.8	982.8	1.895	1.538	1.291
x2 = 0.5	989.7	981.3	972.2	1.8	1.465	1.228
x2 = 0.6	978.1	969.7	960.5	1.731	1.406	1.166
x2 = 0.7	965.2	956.8	947.5	1.677	1.354	1.115
x2 = 0.8	950.9	942.3	932.7	1.633	1.312	1.084
x2 = 0.9	934.6	925.9	916	1.64	1.308	1.077

COCC(C)O (configuration not stated) [1-methoxy-2-propanol] + C=C(C)C(=O)OCCO
[1], x1 = 1
Settings	mass density [kg/m3]	viscosity [mPa·s]
298.15 K	915.9	1.707
308.15 K	907.1	1.306
318.15 K	896.9	1.069

COCC(C)O (configuration not stated) [1-methoxy-2-propanol] + C=C(C)C(=O)O
[1], x1 = 1
Settings	mass density [kg/m3]	viscosity [mPa·s]
298.15 K	915.9	1.707
308.15 K	907.1	1.306
318.15 K	896.9	1.069

C=C(C)C(=O)OCCO [2-hydroxyethyl 2-methyl-2-propenoate]
[2]
Settings	mass density [kg/m3]	viscosity [mPa·s]
298.15 K	1067.1	5.784
308.15 K	1057.7	4.194
318.15 K	1048.6	3.181

COCC(C)O (configuration not stated) [1-methoxy-2-propanol]
[2]
Settings	mass density [kg/m3]	viscosity [mPa·s]
298.15 K	915.9	1.707
308.15 K	907.1	1.306
318.15 K	896.9	1.069

C=C(C)C(=O)OCc1ccccc1 [benzyl methacrylate]
[2]
Settings	mass density [kg/m3]	viscosity [mPa·s]
298.15 K	1034.7	2.302
308.15 K	1025.8	1.885
318.15 K	1017	1.58

C=C(C)C(=O)O [2-methyl-2-propenoic acid] + COCC(C)O
[1]
Settings	mass density, 298.15 K [kg/m3]	mass density, 308.15 K [kg/m3]	mass density, 318.15 K [kg/m3]	viscosity, 298.15 K [mPa·s]	viscosity, 308.15 K [mPa·s]	viscosity, 318.15 K [mPa·s]
x2 = 0	1009.5	999.4	989.2	1.267	1.078	0.945
x2 = 0.1	1000.9	991.8	982.4	1.376	1.163	1.002
x2 = 0.2	992	983.2	974.2	1.659	1.372	1.157
x2 = 0.3	983.5	974.9	966.1	1.982	1.577	1.312
x2 = 0.4	975.3	966.5	957.5	2.124	1.702	1.394
x2 = 0.5	966.6	957.8	948.9	2.233	1.762	1.429
x2 = 0.6	957.5	948.7	940.2	2.255	1.77	1.432
x2 = 0.7	947.3	938.6	930.3	2.14	1.685	1.361
x2 = 0.8	936.9	928.3	919.9	1.969	1.554	1.258
x2 = 0.9	926.2	917.8	909.1	1.809	1.431	1.165

COCC(C)O (configuration not stated) [1-methoxy-2-propanol] + C=C(C)C(=O)OCc1ccccc1
[1], x1 = 1
Settings	mass density [kg/m3]	viscosity [mPa·s]
298.15 K	915.9	1.707
308.15 K	907.1	1.306
318.15 K	896.9	1.069

C=C(C)C(=O)OCCO [2-hydroxyethyl 2-methyl-2-propenoate] + COCC(C)O
[1]
Settings	mass density, 298.15 K [kg/m3]	mass density, 308.15 K [kg/m3]	mass density, 318.15 K [kg/m3]	viscosity, 298.15 K [mPa·s]	viscosity, 308.15 K [mPa·s]	viscosity, 318.15 K [mPa·s]
x2 = 0	1067.1	1057.7	1048.6	5.784	4.194	3.181
x2 = 0.1	1055.2	1046.2	1037.8	5.12	3.747	2.869
x2 = 0.2	1042.8	1034.1	1025.5	4.607	3.408	2.623
x2 = 0.3	1029.9	1021.2	1012.6	4.13	3.065	2.373
x2 = 0.4	1016.3	1007.5	998.9	3.656	2.757	2.148
x2 = 0.5	1001.7	993	984.4	3.256	2.477	1.947
x2 = 0.6	986.2	977.6	969	2.869	2.208	1.753
x2 = 0.7	969.8	961.5	952.8	2.496	1.944	1.559
x2 = 0.8	952.7	944.5	935.5	2.208	1.73	1.395
x2 = 0.9	934.8	926.6	917.3	1.933	1.528	1.237

C=C(C)C(=O)O [2-methyl-2-propenoic acid]
[2]
Settings	mass density [kg/m3]	viscosity [mPa·s]
298.15 K	1009.5	1.267
308.15 K	999.4	1.078
318.15 K	989.2	0.945
